Measured values taken from article PMC7504104, “Dietary Intake of Rosmarinic Acid Increases Serum Inhibitory Activity in Amyloid A Aggregation and Suppresses Deposition in the Organs of Mice” (International Journal of Molecular Sciences, 2020).

Target: T1, recombinant mouse SAA 1.1 (mSAA) (Mus musculus, UniProt P05366)
T1 construct: gene Saa1; cDNA in pET-15b, expressed in E. coli Rosetta, Ni Sepharose purified
T1 sequence (P05366 20-122): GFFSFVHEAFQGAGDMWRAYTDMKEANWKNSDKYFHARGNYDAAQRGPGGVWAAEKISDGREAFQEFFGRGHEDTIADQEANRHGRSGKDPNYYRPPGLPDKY
Assay: quantum-dot fluorescence imaging of amyloid aggregation inhibition (MSHTS)
Assay type: biochemical

Compound: O=C(/C=C/c1ccc(O)c(O)c1)O[C@H](Cc1ccc(O)c(O)c1)C(=O)O [RA, rosmarinic acid]
- EC50: 33.2 ± 2.19 µM
